In series [1] the target is T1, UGT1A1 (Homo sapiens, UniProt P22309).
T1 sequence (P22309 26-533): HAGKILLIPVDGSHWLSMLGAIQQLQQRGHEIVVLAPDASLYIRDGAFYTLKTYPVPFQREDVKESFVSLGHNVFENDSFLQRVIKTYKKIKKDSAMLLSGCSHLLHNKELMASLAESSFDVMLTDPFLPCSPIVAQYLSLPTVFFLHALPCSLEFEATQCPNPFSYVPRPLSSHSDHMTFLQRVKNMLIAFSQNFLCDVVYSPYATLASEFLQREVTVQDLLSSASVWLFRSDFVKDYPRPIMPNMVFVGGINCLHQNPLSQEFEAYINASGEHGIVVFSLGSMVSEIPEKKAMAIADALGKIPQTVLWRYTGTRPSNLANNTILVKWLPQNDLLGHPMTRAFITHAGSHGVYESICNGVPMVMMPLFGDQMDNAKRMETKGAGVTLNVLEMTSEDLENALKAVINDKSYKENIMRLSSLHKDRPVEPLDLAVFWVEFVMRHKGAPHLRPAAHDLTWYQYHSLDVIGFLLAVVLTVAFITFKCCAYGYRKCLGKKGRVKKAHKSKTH
Kind of series: UGT1A1 glucuronidation kinetics of flavonols. It counts as in vitro ADME. The following applies: for Ks: substrate inhibition constant.

The target of series [2] is T2, UGT1A3 (Homo sapiens, UniProt P35503).
T2 sequence (P35503 29-534): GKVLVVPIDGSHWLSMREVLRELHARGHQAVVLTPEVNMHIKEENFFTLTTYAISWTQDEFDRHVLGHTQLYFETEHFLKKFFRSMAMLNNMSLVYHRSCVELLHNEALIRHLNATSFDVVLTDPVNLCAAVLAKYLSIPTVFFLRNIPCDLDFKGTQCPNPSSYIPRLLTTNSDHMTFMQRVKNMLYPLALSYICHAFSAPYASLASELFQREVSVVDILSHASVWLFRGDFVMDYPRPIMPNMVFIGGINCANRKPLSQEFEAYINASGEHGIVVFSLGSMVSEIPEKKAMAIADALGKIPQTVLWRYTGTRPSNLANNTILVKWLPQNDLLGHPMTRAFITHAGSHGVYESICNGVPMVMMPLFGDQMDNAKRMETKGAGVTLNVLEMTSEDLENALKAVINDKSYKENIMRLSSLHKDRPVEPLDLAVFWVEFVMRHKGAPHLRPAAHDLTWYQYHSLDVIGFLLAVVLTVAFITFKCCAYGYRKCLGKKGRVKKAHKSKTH
Kind of series: UGT1A3 glucuronidation kinetics of flavonols. It counts as in vitro ADME. The following applies: substrate inhibition constant.

The next series concerns the target T3, UGT1A7 (Homo sapiens, UniProt Q9HAW7).
T3 sequence (Q9HAW7 26-530): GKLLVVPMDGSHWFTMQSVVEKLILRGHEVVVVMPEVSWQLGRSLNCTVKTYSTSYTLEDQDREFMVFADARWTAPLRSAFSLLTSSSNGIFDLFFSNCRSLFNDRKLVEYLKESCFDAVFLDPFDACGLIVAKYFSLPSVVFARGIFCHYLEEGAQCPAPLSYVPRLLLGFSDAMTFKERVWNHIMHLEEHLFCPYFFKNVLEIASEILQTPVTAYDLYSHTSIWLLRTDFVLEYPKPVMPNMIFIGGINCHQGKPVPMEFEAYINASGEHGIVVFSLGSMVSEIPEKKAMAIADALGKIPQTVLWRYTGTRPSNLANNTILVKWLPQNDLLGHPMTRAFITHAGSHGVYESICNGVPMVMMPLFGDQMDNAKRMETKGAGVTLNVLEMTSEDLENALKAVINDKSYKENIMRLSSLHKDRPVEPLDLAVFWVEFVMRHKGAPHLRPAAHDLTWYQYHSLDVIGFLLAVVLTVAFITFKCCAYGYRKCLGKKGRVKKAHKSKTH
Kind of series: UGT1A7 glucuronidation kinetics of flavonols. It is filed as in vitro ADME. The following applies: formation of 3-O-glucuronide, substrate inhibition constant.

Another series addresses T4, UGT1A8 (Homo sapiens, UniProt Q9HAW9).
T4 sequence (Q9HAW9 26-530): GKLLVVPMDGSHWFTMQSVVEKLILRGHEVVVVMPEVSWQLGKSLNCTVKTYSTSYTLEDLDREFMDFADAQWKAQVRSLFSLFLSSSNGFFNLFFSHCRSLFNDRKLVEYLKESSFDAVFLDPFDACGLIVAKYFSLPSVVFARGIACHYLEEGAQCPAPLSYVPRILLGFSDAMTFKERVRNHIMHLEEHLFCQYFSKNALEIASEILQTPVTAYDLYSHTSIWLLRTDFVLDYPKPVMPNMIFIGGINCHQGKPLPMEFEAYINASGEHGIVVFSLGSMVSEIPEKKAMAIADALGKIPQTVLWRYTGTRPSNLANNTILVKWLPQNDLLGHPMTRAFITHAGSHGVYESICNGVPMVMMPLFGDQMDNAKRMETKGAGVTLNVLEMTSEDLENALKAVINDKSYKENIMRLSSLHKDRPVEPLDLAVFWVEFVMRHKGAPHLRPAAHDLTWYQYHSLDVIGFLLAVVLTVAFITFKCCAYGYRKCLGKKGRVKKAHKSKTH
Nature of the series: UGT1A8 glucuronidation kinetics of flavonols. It is filed as in vitro ADME. The following applies: formation of 3-O-glucuronide.

Series [3] has as its target T5, UGT1A9 (Homo sapiens, UniProt O60656).
T5 sequence (O60656 26-530): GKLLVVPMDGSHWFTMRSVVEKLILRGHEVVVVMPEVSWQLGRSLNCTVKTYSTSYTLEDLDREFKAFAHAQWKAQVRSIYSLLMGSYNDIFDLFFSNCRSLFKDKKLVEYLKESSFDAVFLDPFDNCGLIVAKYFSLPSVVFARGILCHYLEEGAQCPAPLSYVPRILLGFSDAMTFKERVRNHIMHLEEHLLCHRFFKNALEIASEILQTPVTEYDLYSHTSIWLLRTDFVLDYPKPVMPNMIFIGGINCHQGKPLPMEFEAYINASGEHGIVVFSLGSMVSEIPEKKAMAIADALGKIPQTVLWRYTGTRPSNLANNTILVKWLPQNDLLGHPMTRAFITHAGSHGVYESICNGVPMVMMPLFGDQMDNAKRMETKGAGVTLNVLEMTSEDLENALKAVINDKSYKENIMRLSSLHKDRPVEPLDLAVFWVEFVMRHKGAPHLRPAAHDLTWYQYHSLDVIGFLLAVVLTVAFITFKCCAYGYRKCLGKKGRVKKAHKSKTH
Nature of the series: UGT1A9 glucuronidation kinetics of flavonols. It counts as in vitro ADME.

A further series has as its target T6, UGT1A10 (Homo sapiens, UniProt Q9HAW8).
T6 sequence (Q9HAW8 26-530): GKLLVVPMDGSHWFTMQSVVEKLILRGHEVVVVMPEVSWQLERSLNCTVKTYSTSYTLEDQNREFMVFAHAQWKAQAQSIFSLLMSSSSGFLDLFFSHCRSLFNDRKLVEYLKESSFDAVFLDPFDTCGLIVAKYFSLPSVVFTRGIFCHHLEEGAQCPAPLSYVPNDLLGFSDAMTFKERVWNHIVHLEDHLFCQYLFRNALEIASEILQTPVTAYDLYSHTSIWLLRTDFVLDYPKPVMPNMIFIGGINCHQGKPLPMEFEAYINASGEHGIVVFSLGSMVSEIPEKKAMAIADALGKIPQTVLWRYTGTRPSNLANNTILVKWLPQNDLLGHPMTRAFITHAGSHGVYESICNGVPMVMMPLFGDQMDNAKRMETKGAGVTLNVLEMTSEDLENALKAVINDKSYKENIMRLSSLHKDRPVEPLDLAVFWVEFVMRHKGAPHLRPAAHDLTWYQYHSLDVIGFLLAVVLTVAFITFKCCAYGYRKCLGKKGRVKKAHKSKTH
Nature of the series: UGT1A10 glucuronidation kinetics of flavonols. It is filed as in vitro ADME. The following applies: formation of 3-O-glucuronide, substrate inhibition constant.

Series [4] addresses T2, UGT1A3. The following applies: published observation; cited from earlier work.
In series [5] the target is T5, UGT1A9. The following applies: ref 32 (Chen et al.); cited from earlier work.
For series [6], the target named is T1, UGT1A1. Nature of the series: Inhibition of UGT1A1-mediated glucuronidation of 3-hydroflavone. It counts as biochemical. The following applies: 40 µM inhibitor; data not shown.

Molecules are shown by their SMILES.

On to `O=c1c(O)c(-c2ccccc2)oc2cc(O)cc(O)c12` [3,5,7THF, 3,5,7-trihydroxyflavone], for which the Vmax amounted to 0.82 nmol/mg/min at UGT1A1 [1] (formation of 3-O-glucuronide); 4.59 nmol/mg/min at UGT1A1 [1] (formation of 7-O-glucuronide); 3.89 nmol/mg/min on UGT1A8; 7.41 ± 0.89 nmol/mg/min on UGT1A9 [3] (formation of 3-O-glucuronide); 2.56 ± 0.10 nmol/mg/min at UGT1A9 [3] (formation of 7-O-glucuronide). Besides, the Ks on UGT1A1 [1] (formation of 3-O-glucuronide) was 2.64 ± 0.89 µM; on UGT1A1 [1] (formation of 7-O-glucuronide) it was 1.22 ± 0.19 µM; on UGT1A3 [2] (formation of 3-O-glucuronide), 17.86 ± 6.33 µM; on UGT1A3 [2] (formation of 7-O-glucuronide) it was 9.95 ± 9.16 µM; at UGT1A7 it was 55.75 ± 7.27 µM; on UGT1A8 (substrate inhibition constant), 37.28 ± 10.12 µM. The Ks on UGT1A9 [3] (formation of 3-O-glucuronide, substrate inhibition constant) is listed as 7.43 ± 2.12 µM; at UGT1A10 it was 73.48 ± 17.82 µM. Also, the Michaelis-Menten constant (Km) stood at 0.68 ± 0.16 µM on UGT1A9 [3] (formation of 3-O-glucuronide) and 0.54 ± 0.08 µM at UGT1A9 [3] (formation of 7-O-glucuronide).

Take `COc1ccc(C2CC(=O)c3c(O)cc(O)cc3O2)cc1O` (centres unmarked) [hesperetin, 4'-methoxy-3',5,7-trihydroxyflavanone]: the glucuronide generated entry on UGT1A3 [4] is listed as “only 7-O-glucuronide was generated”.

For `O=c1c(O)c(-c2ccc(O)c(O)c2)oc2cc(O)cc(O)c12` [quercetin, 3,5,7,3’,4’-pentahydroxyflavone], the regioselectivity of glucuronidation on UGT1A9 [5] is reported as 3-O-glucuronidation was most efficient with the highest CLint value.

For the molecule `O=c1c(O)c(-c2ccc(O)cc2)oc2cc(O)ccc12` [3,7,4’THF, 3,7,4’-tryhydroxyflavone], the Ks on UGT1A1 [1] (formation of 3-O-glucuronide) came out at 5.41 ± 0.93 µM; at UGT1A1 [1] (formation of 7-O-glucuronide) it was 3.53 ± 0.86 µM. Further, the “inhibition of glucuronidation of 3-hydroflavone by UGT1A1” value at UGT1A1 [6] is given as “completely inhibited”.

In general, Vmax refers to the rate approached at saturating substrate. One may read the Km as the concentration of substrate that gives half-maximal velocity.

(Values after PMC3426363 (Pharmaceutical research, 2011).)
